# Data taken from US20020164348A1 (priority 2000, published 2002).
# How the values were obtained:
# poliovirus polymerase [1] = target: T1, poliovirus polymerase (Poliovirus type 1, UniProt P03300)
# poliovirus polymerase [2] = target: T1, poliovirus polymerase; remark: listed apart in the source
# poliovirus polymerase [3] = target: T1, poliovirus polymerase; remark: listed apart in the source
# [4] = target: lattices of poliovirus polymerase (Poliovirus type 1, UniProt P03300)
# lattices of poliovirus polymerase, sequence (P03300 1749-2209 limits assumed): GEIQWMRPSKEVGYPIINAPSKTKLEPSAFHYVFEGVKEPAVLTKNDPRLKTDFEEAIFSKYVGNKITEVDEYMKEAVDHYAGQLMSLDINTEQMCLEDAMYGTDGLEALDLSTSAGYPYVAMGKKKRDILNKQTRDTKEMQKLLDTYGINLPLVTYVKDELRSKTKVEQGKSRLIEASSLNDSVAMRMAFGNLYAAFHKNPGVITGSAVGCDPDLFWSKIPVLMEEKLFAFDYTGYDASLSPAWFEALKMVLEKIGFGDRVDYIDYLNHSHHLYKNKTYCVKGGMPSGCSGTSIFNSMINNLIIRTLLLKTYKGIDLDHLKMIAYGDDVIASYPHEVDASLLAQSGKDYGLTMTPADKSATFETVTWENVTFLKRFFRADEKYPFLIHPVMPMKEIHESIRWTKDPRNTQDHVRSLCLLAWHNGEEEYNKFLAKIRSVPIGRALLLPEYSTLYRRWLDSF
# T1 sequence (P03300 1749-2209 limits assumed): as above
sequence,measurement,setting,value
KPHKCTFEGCRKSYSRSTNLRRHLNSH (SEQ ID NO:5) [Peptide 1],amount of UTP incorporated,poliovirus polymerase [1],diminished
same,UTP incorporation,poliovirus polymerase [2],dramatic stimulation
same,cooperativity of the elongation reaction,poliovirus polymerase [3],loss of cooperativity
same,inhibition of poliovirus polymerase,poliovirus polymerase [3],inhibits poliovirus polymerase effectively
same,inhibition of the polymerase reaction,poliovirus polymerase [3],marked inhibition
same,sheets and tubes of polymerase by electron microscopy,[4],replaced by large aggregates and more narrow ribbons
